Measurements from patent US7842324B2 (Senomyx, Inc., priority 2005, dated 2010).

System: tasters
Assay: Reduced sugar soda syrup (strawberry soda) sensory evaluation
Format: in vivo, human
Details: scale 1 to 10
Description: 1000.00 g of the ⅔ sugared syrup comprising compound 23 was formulated in the following manner. Compound 23 was diluted with maltodextrin (1:100) to make a sweetener concentrate composition for addition to the soda syrup formulation. An alternative method is to make a solution of amide compound in propylene glycol that can be added directly into the liquid soda syrup formulation. A 100 g batch of dry sweetener concentrate composition was produced by weighing 1.000 g of the enhancer and 99.0000 g of 10 D.E. maltodextrin. 50 g of the maltodextrin was placed on the bottom of a clean and dried mortar and the 1.0000 g of amide compound was added and slowly mixed into the maltodextrin. In a planetary mixer with a wire whip attachment (KITCHEN AIDE™ Mixer), the rest of the maltodextrin was added to the mixing bowl, and the contents of the mortar was placed into the mixer and the mixer was turned on to a slow speed (setting 3). A rubber spatula was used to remove the contents of the mortar and the contents were allowed to mix for an additional 10 minutes. A rubber spatula was used to scrap the walls and bottom of the bowl. The mixture was blended on low for another 15 minutes. The […] sweetener concentrate composition was stored in an air tight amber glass container. […]

`CC(C)CNC(=O)C(C)(C)c1ccc(-c2cncc(C#N)c2)cc1` [Compound 23, 2-(4-(5-cyanopyridin-3-yl)phenyl)-N-isobutyl-2-methylpropanamide] was tested, and the “Average Sweet Intensity Score” value (⅔ sugared with HFCS strawberry soda + 1.0 ppm) was 6.429 and the “Average Sweet Intensity Score” value (⅔ sugared with HFCS strawberry soda + 1.3 ppm) was 7.214.
